Reference: US8618144B2, “Pyrrolidine-derived beta 3 adrenergic receptor agonists” (Merck Sharp & Dohme Corp, priority 2009, dated 2013)
Structures can show the parent of a compound that is named as a salt.

biological target: T1, human β3 adrenergic receptor (Homo sapiens, UniProt P13945); assay: Functional Assay: cAMP production in CHO cells stably transfected with cloned β3-adrenergic receptor (LANCE); type: cell-based; conditions: CHO cells expressing β3 receptor, range classes, read-out: Human β3 EC50
T1 construct: expressed in transfected cells; host or cells: Chinese hamster ovary (CHO) cells, stably transfected
T1 sequence (P13945 whole entry): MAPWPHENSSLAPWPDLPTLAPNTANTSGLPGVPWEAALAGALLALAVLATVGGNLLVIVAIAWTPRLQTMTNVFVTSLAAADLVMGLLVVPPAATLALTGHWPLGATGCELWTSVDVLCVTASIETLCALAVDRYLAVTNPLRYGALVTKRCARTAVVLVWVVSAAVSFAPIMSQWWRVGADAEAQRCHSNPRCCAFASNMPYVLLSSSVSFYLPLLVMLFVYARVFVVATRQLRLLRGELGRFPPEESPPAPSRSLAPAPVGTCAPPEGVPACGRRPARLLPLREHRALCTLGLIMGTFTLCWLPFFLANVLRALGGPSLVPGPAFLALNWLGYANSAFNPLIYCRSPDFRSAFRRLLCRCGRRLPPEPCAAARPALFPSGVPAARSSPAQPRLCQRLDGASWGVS
Experimental: Functional Assay: cAMP production in response to ligand is measured according to Barton et al (1991, Agonist-induced desensitization of D2 dopamine receptors in human Y-79 retinoblastoma cells. Mol. Pharmacol. […]) modified as follows. cAMP production is measured using a homogenous time-resolved fluorescence resonance energy transfer immunoassay (LANCE™, Perkin Elmer) according to the manufacture's instructions. Chinese hamster ovary (CHO) cells, stably transfected with the cloned β-adrenergic receptor (β1, β2 or β3) are harvested after 3 days of subculturing. Harvesting of cells is done with Enzyme-free Dissociation Media (Specialty Media). Cells are then counted and resuspended in assay buffer (Hank's Balanced salt solution supplemented with 5 mM HEPES, 0.1% BSA) containing a phosphodiesterase inhibitor (IBMX, 0.6 mM). The reaction is initiated by mixing 6,000 cells in 6 μL with 6 μL Alexa Fluor labeled cAMP antibody (LANCE™ kit) which is then added to an assay well containing 12 ul of compound (diluted in assay buffer to 2× final concentration). The reaction proceeds for 30 minutes at room temperature and is terminated by the addition of 24 μL detection buffer (LANCE™ kit). The assay plate is then incubated for 1 hour at room temperature and time-resolved fluorescence measured on a Perkin Elmer Envision reader or equivalent. The unknown cAMP level is determined by comparing fluorescence levels to a cAMP standard curve.
The non-selective, full agonist β-adrenergic ligand isoproterenol is used at all three receptors to determine maximal stimulation. The human β3 adrenergic receptor (AR) selective ligand (S)—N-[4-[2-[[2-hydroxy-3-(4-hydroxyphenoxy)propyl]amino]ethyl]-phenyl]-4-iodobenzenesulfonamide is used as a control in all assays. Isoproterenol is titrated at a final concentration in the assay of 10^−10 M to 10^−5 M and the selective ligand (S)—N-[4-[2-[[2-hydroxy-3-(4-hydroxyphenoxy)propyl]amino]ethyl]phenyl]-4-iodobenzenesulfonamide is titrated at the β3 receptor at concentration of 10^−10 M to 10^−5 M. Unknown ligands are titrated at all 3β-adrenergic receptor subtypes at a final concentration in the assay of 10^−10 M to 10^−5 M to determine the EC50. The EC50 is defined as the concentration of compound that gives 50% activation of its own maximum. Data are analyzed using Microsoft Excel and Graphpad Prism or an internally developed data analysis software package.

Row | SMILES | EC50
1 | Cc1csc(CC(=O)Nc2ccc(C[C@@H]3CC[C@H]([C@H](O)COc4ccccc4)N3)cc2)n1 [Example 3] | 1 to 10 nM
2 | Cc1nc(CC(=O)Nc2ccc(C[C@@H]3CC[C@H]([C@H](O)COc4ccccc4)N3)cc2)c(C)s1 [Example 5] | 1 to 10 nM
3 | O=C(Cc1nnc(-c2ccccc2)[nH]1)Nc1ccc(C[C@@H]2CC[C@H]([C@H](O)COc3ccccc3)N2)cc1 [Example 6] | < 1 nM

same assay, conditions: CHO cells expressing β3 receptor, read-out: human β3 functional activity (EC50)

Row | SMILES | EC50
4 | Nc1nc(CC(=O)Nc2ccc(C[C@@H]3CC[C@H]([C@H](O)COc4ccccc4)N3)cc2)cs1 [Example 1, 2-(2-Amino-1,3-thiazol-4-yl)-N-[4-({(2S,5R)-5-[(1S)-1-hydroxy-2-phenoxyethyl]pyrrolidin-2-yl}methyl)phenyl]acetamide bis-trifluoroacetate salt] | < 1 nM
5 | Nc1nc(CC(=O)Nc2ccc(C[C@H]3CC[C@H]([C@H](O)COc4ccccc4)N3)cc2)cs1 [Example 11, 2-(2-Amino-1,3-thiazol-4-yl)-N-[4-({(2R,5R)-5-[(1S)-1-hydroxy-2-phenoxyethyl]pyrrolidin-2-yl}methyl)phenyl]acetamide bis trifluoroacetate salt] | 100 to 1000 nM
6 | O=S(=O)(Nc1ccc(C[C@@H]2CC[C@H]([C@H](O)COc3ccccc3)N2)cc1)c1ccc(-c2nc(-c3ccc(C(F)(F)F)cc3)cs2)cc1 [Example 12, N-[4-({(2S,5R)-5-[(1S)-1-Hydroxy-2-phenoxyethyl]pyrrolidin-2-yl}methyl)phenyl]-4-{4-[4-(trifluoromethyl)phenyl]-1,3-thiazol-2-yl}benzenesulfonamide trifluoroacetate salt] | < 10 nM
7 | O=S(=O)(Nc1ccc(C[C@@H]2CC[C@H]([C@H](O)COc3ccccc3)N2)cc1)c1ccc(I)cc1 [Example 13] | < 10 nM
8 | CCCCCCNC(=O)Nc1ccc(S(=O)(=O)Nc2ccc(C[C@@H]3CC[C@H]([C@H](O)COc4ccccc4)N3)cc2)cc1 [Example 14, 4-{[(Hexylamino)carbonyl]amino}-N-[4-({(2S,5R)-5-[(1S)-1-hydroxy-2-phenoxyethyl]pyrrolidin-2-yl}methyl)phenyl]benzenesulfonamide trifluoroacetate salt] | < 1 nM
9 | Nc1ncn(CC(=O)Nc2ccc(C[C@@H]3CC[C@H]([C@H](O)COc4ccccc4)N3)cc2)n1 [Example 15, 2-(3-Amino-1H-1,2,4-triazol-1-yl)-N-[4-({(2S,5R)-5-[(1S)-1-hydroxy-2-phenoxyethyl]pyrrolidin-2-yl}methyl)phenyl]acetamide trifluoroacetate salt] | < 1 nM
